These results are taken from the supplement of paper PMC11061612.

In one test the test system is ACHN (Kidney Carcinoma). The test is described as follows: Bliss excess, mean over the matrix (fraction); higher = more synergy. The procedure, abridged: (§1)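 Cell lines grown in DMEM/F12 or RPMI with 10% FBS were plated in 1536-well plates and held 24 hours at 37°C, 5% CO2 before 72 hours of exposure to two-drug dose matrices, with DMSO typically at 0.2%. CellTiter-Glo 2.0 luminescence gave viability, which was converted to inhibition. Vehicle wells were set to 0 and blank wells to 1. Combination Emax is the second-highest inhibition in the matrix, and Bliss excess is the observed combination effect minus the expected EA + EB − EA·EB, where EA and EB are the single-agent effects.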

The test system of test [1] is Ca9-22 (Head and Neck Carcinoma). Described as above. The method, boiled down: as §1
Test [2] deals with Caov-4 (Ovarian Carcinoma). Described as above. The procedure, abridged: as §1
For test [3], the system named is EoL-1-cell (Acute Myeloid Leukemia). The test is described as above. The method, boiled down: as §1
Test [4] deals with HGC-27 (Gastric Carcinoma). The test is described as above. The procedure, abridged:
as §1

Test [5] concerns HOP-62 (Lung Adenocarcinoma). The test is described as above. The method, boiled down:
as §1

The test system of test [6] is KMOE-2 (Acute Myeloid Leukemia). The test is described as above. The procedure, abridged: as §1
Test [7] relates to MIA-PaCa-2 (Pancreatic Carcinoma). The test is described as above. The method, boiled down: as §1
In a further test the test system is NB69 (Neuroblastoma). The description is as above. The method, boiled down:
as §1

The test system of test [8] is NCI-H358 (Lung Adenocarcinoma). The test is described as above. The procedure, abridged: as §1
Test [9] relates to NEC8 (Other Solid Carcinomas). The test is described as above. The method, boiled down: as §1
Test [10] concerns NUGC-3 (Gastric Carcinoma). The description is as above. The procedure, abridged: as §1
In test [11] the test system is PANC-04-03 (Pancreatic Carcinoma). The test is described as above. The method, boiled down:
as §1

The subject of a further test is PWR-1E (Non-Cancerous). Described as above. The method, boiled down: as §1
The test system of test [12] is SU8686 (Pancreatic Carcinoma). Described as above. The method, boiled down:
as §1

Test [13] has as its system TE-1 (Esophageal Squamous Cell Carcinoma). The description is as above. The procedure, abridged: as §1
A further test has as its system TK10 (Kidney Carcinoma). The description is as above. The procedure, abridged: as §1
Test [14] relates to VA-ES-BJ (Other Solid Carcinomas). Described as above. The procedure, abridged:
as §1

The test system of another test is YH-13 (Glioblastoma). The test is described as above. The procedure, abridged:
as §1

Test [15] concerns SW13 (Other Solid Carcinomas). Briefly: combination Emax (second highest fraction inhibited in the dose matrix, 72 h); higher = more inhibition; extreme values may be limits of the assay. The procedure, abridged: as §1
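For Bliss excess, mean over the matrix in this document: after 72 h of two-drug dosing.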

On to `CC1(C)CCC(CN2CCN(c3ccc(C(=O)NS(=O)(=O)c4ccc(NCC5CCOCC5)c([N+](=O)[O-])c4)c(Oc4cnc5[nH]ccc5c4)c3)CC2)=C(c2ccc(Cl)cc2)C1` [Venetoclax] + C1CN(CCC1(C(=O)N[C@@H](CCO)C2=CC=C(C=C2)Cl)N)C3=NC=NC4=C3C=CN4 [Capivasertib] (first compound max 1 µM, 7x7, partner max 3 µM), for which the Bliss excess in the test on ACHN (Kidney Carcinoma) is -0.0358; in [1], -0.0171; in test [2], -0.0458; in test [3] it was 0.0239; in test [4], -0.0002; in test [5], -0.0565. The Bliss excess in [6] is 0.0121; in [7], -0.0384; with NB69 (Neuroblastoma), 0.0242; in test [8], -0.0591; in test [9] it was -0.0125; in test [10], -0.0102. In addition, the Bliss excess is -0.0732 in [11]; -0.0161 with PWR-1E (Non-Cancerous); -0.0379 in test [12]; -0.0236 in test [13]; -0.0574 in the test on TK10 (Kidney Carcinoma); -0.0357 in [14]. In the test on YH-13 (Glioblastoma), the Bliss excess is -0.039. Also, the “combination Emax” value in [15] was found to be 0.254.

In the case of `CC1(C)CCC(CN2CCN(c3ccc(C(=O)NS(=O)(=O)c4ccc(NCC5CCOCC5)c([N+](=O)[O-])c4)c(Oc4cnc5[nH]ccc5c4)c3)CC2)=C(c2ccc(Cl)cc2)C1` [Venetoclax] + C=CCn1c(=O)c2cnc(Nc3ccc(N4CCN(C)CC4)cc3)nc2n1-c1cccc(C(C)(C)O)n1 [AZD1775] (first compound max 1 µM, partner max 1 µM), the Bliss excess is 0.0604 with ACHN (Kidney Carcinoma); 0.0384 in test [1]; 0.0534 in [2]; 0.0156 in test [3]; -0.0252 in test [4]; -0.0635 in test [5]. The Bliss excess in [6] was -0.0226; in [7], 0.0944; in the test with NB69 (Neuroblastoma), -0.282; in test [8] it was 0.0042; in test [9], -0.0523; in [10], -0.0656. Also, the Bliss excess was -0.0597 in test [11]; -0.0347 in the test on PWR-1E (Non-Cancerous); -0.0317 in test [12]; -0.0667 in [13]; -0.0444 in the test with TK10 (Kidney Carcinoma); -0.0373 in test [14]. Further, the Bliss excess in the test with YH-13 (Glioblastoma) was -0.0085. Also, the “combination Emax” value in [15] came to 0.289.

For `CC1(C)CCC(CN2CCN(c3ccc(C(=O)NS(=O)(=O)c4ccc(NCC5CCOCC5)c([N+](=O)[O-])c4)c(Oc4cnc5[nH]ccc5c4)c3)CC2)=C(c2ccc(Cl)cc2)C1` [Venetoclax] + CCN(CCO)CCCOc1ccc2c(Nc3cc(CC(=O)Nc4cccc(F)c4)[nH]n3)ncnc2c1 [AZD2811] (first compound max 1 µM, 7x7, partner max 1 µM), the Bliss excess in the test with ACHN (Kidney Carcinoma) is -0.0204; in test [1], 0.0079; in test [2], -0.0091; in test [3], 0.0108; in test [4] it was 0.0075; in test [5], -0.0222. Also, the Bliss excess was -0.0506 in test [6]; -0.0362 in test [7]; 0.0179 in the test with NB69 (Neuroblastoma); -0.0315 in test [8]; -0.007 in test [9]; 0.0083 in test [10]. For the same molecule, the Bliss excess in test [11] was -0.0565; in the test on PWR-1E (Non-Cancerous) it was -0.0234; in test [12] it was -0.0364; in test [13], 0.0056; with TK10 (Kidney Carcinoma), -0.0927; in test [14], 0.0108. Moreover, the Bliss excess in the test on YH-13 (Glioblastoma) is -0.0428. Moreover, the “combination Emax” value in [15] was found to be 0.402.

Consider `CC1(C)CCC(CN2CCN(c3ccc(C(=O)NS(=O)(=O)c4ccc(NCC5CCOCC5)c([N+](=O)[O-])c4)c(Oc4cnc5[nH]ccc5c4)c3)CC2)=C(c2ccc(Cl)cc2)C1` [Venetoclax] + CN(C)CCCOc1ccc(-c2ccc3ncc4c(c3c2)n(C2CCOCC2)c(=O)n4C)cn1 [AZD0156] (first compound max 1 µM, 7x7, partner max 1 µM), for which the Bliss excess in the test on ACHN (Kidney Carcinoma) was -0.0333; in test [1], 0.0234; in test [2], -0.0256; in test [3] it was 0.0038; in test [4] it was 0.0396; in test [5] it was -0.0677. In addition, the Bliss excess in test [6] is -0.0291; in test [7], 0.0184; in the test with NB69 (Neuroblastoma), -0.0548; in test [8], -0.0146; in test [9], 0.0105; in test [10], -0.0035. Further, the Bliss excess in [11] was -0.062; in the test with PWR-1E (Non-Cancerous), 0.0005; in test [12], -0.0036; in [13], -0.0468; in the test with TK10 (Kidney Carcinoma), -0.0782; in test [14], -0.0204. Moreover, the Bliss excess in the test with YH-13 (Glioblastoma) is -0.0972. The “combination Emax” value in test [15] was found to be 0.465.

With `CC1(C)CCC(CN2CCN(c3ccc(C(=O)NS(=O)(=O)c4ccc(NCC5CCOCC5)c([N+](=O)[O-])c4)c(Oc4cnc5[nH]ccc5c4)c3)CC2)=C(c2ccc(Cl)cc2)C1` [Venetoclax] + COc1cc(Nc2ncc3c(n2)-c2ccc(Cl)cc2C(c2c(F)cccc2OC)=NC3)ccc1C(=O)O [Alisertib] (first compound max 1 µM, 7x7, partner max 10 µM), the Bliss excess with ACHN (Kidney Carcinoma) is 0.0062; in test [1], -0.0147; in [2], 0.0149; in [3], 0.0132; in test [4] it was 0.0133; in test [5] it was -0.0381. Also, the Bliss excess in test [6] is 0.0304; in test [7], -0.0131; in the test on NB69 (Neuroblastoma) it was 0.0765; in test [8], 0.0186; in test [9], -0.0037; in test [10], 0.0325. Moreover, the Bliss excess is -0.0843 in test [11]; -0.0103 in the test on PWR-1E (Non-Cancerous); -0.0438 in test [12]; 0.0279 in [13]; -0.0694 in the test with TK10 (Kidney Carcinoma); -0.0089 in [14]. In the test on YH-13 (Glioblastoma), the Bliss excess was 0.111. Also, the “combination Emax” value in test [15] was determined as 0.599.

With `CC1(C)CCC(CN2CCN(c3ccc(C(=O)NS(=O)(=O)c4ccc(NCC5CCOCC5)c([N+](=O)[O-])c4)c(Oc4cnc5[nH]ccc5c4)c3)CC2)=C(c2ccc(Cl)cc2)C1` [Venetoclax] + C[C@@H]1COCCN1C2=NC(=NC(=C2)C3(CC3)[S@](=N)(=O)C)C4=C5C=CNC5=NC=C4 [AZD6738] (first compound max 1 µM, 7x7, partner max 10 µM), the Bliss excess was -0.0445 in the test on ACHN (Kidney Carcinoma); -0.0019 in test [1]; -0.0228 in test [2]; 0.0267 in test [3]; -0.0099 in test [4]; -0.0649 in test [5]. Also, the Bliss excess is 0.0071 in [6]; -0.0632 in test [7]; 0.0496 with NB69 (Neuroblastoma); -0.0224 in [8]; -0.0293 in [9]; -0.035 in test [10]. In addition, the Bliss excess was -0.0168 in [11]; -0.0747 with PWR-1E (Non-Cancerous); -0.0285 in [12]; -0.0131 in test [13]; -0.102 with TK10 (Kidney Carcinoma); -0.0185 in test [14]. Moreover, the Bliss excess in the test on YH-13 (Glioblastoma) was -0.0325. Besides, the “combination Emax” value in [15] is 0.472.
